This is an account of results in patent publication US7390462B2, “Ratiometric fluorescent pH sensor for non-invasive monitoring” (The University of Maryland Baltimore County, priority 2002, dated 2008).

For series [1] the following is noted: literature (11); cited from earlier work.
For series [2] the following is noted: cited from earlier work; for pKa: literature value.
A short description of series [3]: physchem. Format: physicochemical. The protocol:
Fluorescence measurements were recorded with a Varian Cary Eclipse fluorescence spectrophotometer. A solid sample/cuvette holder designed for front-face measurements was used to measure sensor patches that were fixed to the inside front wall of a PMMA disposable cuvette. Excitation light was fixed at an angle of incidence of 30°. Solutions were measured in regular 90° configuration. Cuvettes containing sensor patches were equilibrated in buffered saline solutions ranging in pH from 5 to 10. Uncorrected excitation and emission spectra were recorded for each sample. For comparison, solutions of DHDS and HPTS were also prepared and tested at the same pH values.
FIG. 3 depicts the calibration curves of excitation intensity ratio versus pH for DHDS solution, HPTS solution and the immobilized HPDS. Sensors comprising HDPS-PEG layers were calibrated in buffered saline solutions that ranged in pH from 5 to 10. In each case, the appropriate buffering species, i.e., phosphate, tris or bicarbonate, was at 10 mM and the desired ionic strength, e.g., 20, 150 or 300 mM, was made up with sodium chloride salt. Cuvettes containing sensor patches were equilibrated in each solution. For comparison 1 μM solutions of DHDS and HPTS also were prepared and tested over the same pH range.
Calibration curves for HPTS and MA-HPDS were fit to the following expression (25) describing intensity ratio (R) of monoprotic indicator dyes as a function of pH: R=([H^+]Rmax+ka,appRmin)/ka,app+[H^+] (1) where ka,app is the apparent dissociation constant of the immobilized dye. A least-squares linear regression was used to determine the parameters Rmin, Rmax and ka,app. The pka,app of the immobilized dye was calculated to be 7.61±0.05 for these conditions. This is in good agreement with the pka,app of HPTS in solution, which was calculated to be 7.72±0.02 under the same conditions.
The modified dye is sensitive over the same range as HPTS. The calibration curve for DHDS was fit to an expression similar to that for monoprotic acids, but for diprotic acids. The second hydroxyl group causes DHD to be sensitive over an extended range with two dissociation constants calculated to be pka1,app=7.03±0.02 and pka1,app=9.05±0.02 under these conditions.

Where two headings read alike, the source gives them in different places.

As usually defined, the pKa is the pH at which an ionisable group is half protonated. As to `O=S(=O)([O-])c1cc(O)c2ccc3c(S(=O)(=O)[O-])cc(S(=O)(=O)[O-])c4ccc1c2c34.[Na+].[Na+].[Na+]` [HPTS, 8-hydroxy-1,3,6-pyrene trisulphonic acid trisodium salt], the toxicity result in series [1] is listed as “low toxicity”. The pKa result in series [2] is “approximately 7.3”; in series [3], 7.72 ± 0.02.

In series [3], `C=C(C)C(=O)Oc1cc(O)c2ccc3c(S(=O)(=O)O)cc(S(=O)(=O)O)c4ccc1c2c34` [MA-HPDS, 6-methacryloyl-8-hydroxy-1,3-pyrene disulfonic acid] registered a pKa of 7.61 ± 0.05.

Take `O=S(=O)([O-])c1cc(S(=O)(=O)[O-])c2ccc3c(O)cc(O)c4ccc1c2c43.[Na+].[Na+]` [DHDS, 6,8-dihydroxy-1,3-pyrenedisulfonic acid disodium salt]: the “second pKa” value in series [2] (literature value (9)) is “approximately 8.5”. Moreover, in series [3], the “pka1,app (first dissociation constant)” value is listed as 7.03±0.02 and the “pka1,app (second printed dissociation constant)” value amounted to 9.05±0.02.

In the case of `O=C1OC2(c3cc(Cl)c(O)cc3Oc3cc(O)c(Cl)cc32)c2ccccc21` [dichlorofluorescein], in series [2], the pKa is about 4.
